Columns and labels:
platelets = experiment: In vitro platelet aggregation (ADP-induced, washed platelets); type: cell-based; conditions: Homo sapiens, washed platelets from healthy volunteers, agonist giving 60-70% aggregation, % inhibition of control ADP response
Procedure: Platelet aggregation studies were performed according to a published method (Bednar, B., Condra, C., Gould, R. J., and Connolly, T. M., Throm. Res., 77:453-463 (1995). Platelet-rich plasma (PRP) concentrates prepared from healthy volunteers who were aspirin free for at least 7 days by venipuncture using ACD-A as anticoagulant was purchased from Biological Specialties, Inc. (Colmar, Pa.). PRP was centrifuged at 730 g for 15 min. The platelet pellet was washed twice in CGS buffer (13 mM sodium citrate, 30 mM glucose, 120 mM NaCl, pH 6.5) containing 1 μ/ml apyrase (grade V, Sigma-Aldrich, St. Louis, Mo.), 1 mM EGTA, and resuspended in Tyrode's buffer (140 mM NaCl, 2.7 mM KCl, 12 mM NaHCO3, 0.76 mM Na2HPO4, 5.5 mM dextrose, 5.0 mM Hepes, 0.2% BSA, pH 7.4). The platelets were diluted to 3×10^8 platelets/ml and kept >45 min at 37° C. before use. 105 μl of washed platelets, 2 mM CaCl2 and […] of fibrinogen were added to a 96-well microliter plate.
Platelet aggregation was initiated by the addition of serial concentrations of ADP (BioData Corp. Horsham, Pa.). Buffer was added to one set of control wells. The assay plate was stirred constantly and intermittently placed in a microplate reader (Softmax, Molecular Devices, Menlo Park, Calif.) to read optical density (650 nm) at 0 and 5 minutes after the addition of the compound solutions. Aggregation was calculated as the decrease in optical density between the time 0- and 5-min measurements and expressed as % of aggregation. For the inhibition assay, platelet aggregation was conducted as described above except for compound additions. Test compounds were prepared in 100% DMSO and stored.
On the day of the assay, test compounds were diluted in the buffer containing 3% of DMSO as a 10× working solution. 15 μl of compound solutions were added to 105 μl of platelets 5 min prior to the addition of CaCl2 and fibrinogen.

ADP P2Y12 receptor = target: T1, ADP P2Y12 receptor (Homo sapiens, UniProt Q9H244); experiment: FLIPR calcium assay transducing Gi-coupled signaling to the Gq pathway (inhibition of ADP-induced calcium mobilization); type: cell-based; conditions: HEK 293 cells co-transfected with P2Y12 and Gqi5, ADP at EC60-70 dose
T1 construct: expressed in transfected cells
From the text: A FLIPR Calcium Assay Transducing Gi-Coupled Signaling to the Gq Pathway
The ADP P2Y12 subtype is a Gi coupled GPCR, which mediates inhibition of adenylate cyclase leading to decreased cAMP while Gq proteins primarily activate phospholipase C, which stimulates inositol-1,4,5-triphosphate (IP3) formation and a subsequent increase in intracellular Ca^2+ concentration, which can be easily measured by FLIPR. Prior to the development of a method to convert a Gi coupled GPCR signaling to a Gq coupled GPCR signaling, a significant barrier existed for the functional testing and screening of Gi coupled GPCRs. One popular method, GTPγS migration, is slow, produces a small signal and generates radioactive waste. The discovery that a small switch in the amino acid sequence in the Gi protein could convert it to a protein mediating a Gq coupled response has led to the development of robust, high throughput assays for this valuable receptor subtype.
The FLIPR-based HTS assay transducing the Gi signaling to the Gq pathway is described below.
pcDNA3hygroP2Y12 containing a hygromycin resistance gene and pLEC1-Gqi5-HA containing a neomycin resistance gene (licensed from Molecular Devices, Sunnyvale, Calif.) were co-transfected into Human embryonic kidney (HEK) 293 cells with SuperFect (Qiagen, Valencia, Calif.). Cell clones were selected in the presence of 600 μg/ml hygromycin B (Life Technologies, Carlsbad, Calif.) and 1 mg/ml of G418 (Mediatech, Herndon, Va.). Drug resistant colonies were picked and screened by FLIPR and the gene expression was further confirmed by RT-PCR. Positive clones were maintained in growth medium (DMEM supplemented with 10% FBS, 1× p/s) containing 400 μg/ml of G418 and 200 μg/ml of hygromycin.
The day before the assay, cells are seeded in clear, flat-bottom black-wall, tissue culture treated polystyrene 96- or 384-well plates and incubated at 37° C., 5% CO2. 50 μl of complete dye loading solution (FLIPR Calcium Assay Kit, Molecular Devices) was added to each well containing 100 μl of culture media. The cells were incubated for at least 30 min at 37° C., in 5% CO2 before initiating the assay on the FLIPR. The agonist effect of ADP was tested and EC50 was determined prior to compound testing. The EC60-70 dose was used.
The antagonist compounds were prepared at 4× and the agonists were diluted at 5× the concentration desired in the test wells, and then aliquoted into the sample plates. The sample plates and the cell plate were placed in the FLIPR assay chamber. A first addition (50 μl) was made at the start of reading and a second addition (50 μl) was made after 5 min of reading. Raw fluorescence data was exported for each well and tabulated versus time within an ASCII file. Data was then imported into Excel and the peak response over the basal level was determined. The percent inhibition for each compound was calculated by the change in fluorescent density as a % inhibition of the control ADP response to obtain an IC50, as shown in Table 1 (wherein N/A means Not Applicable).

P2Y12 receptor = target: T2, P2Y12 receptor (Homo sapiens, UniProt Q9H244); experiment: Whole cell receptor binding assay, 2-MeS[3H]-ADP; conditions: HEK 293 cells stably transfected with P2Y12; 2-MeS[3H]-ADP 3 nM; 30 min at 37° C.; read-out: Inhibition of Receptor Binding (IC50 μM)
T2 construct: expressed in transfected cells
Procedure: A whole cell-binding assay for 2-MeS [^3H]-ADP (Custom synthesized by Amersham BioScience, Piscataway, N.J.) to the P2Y12 receptor was performed.
A P2Y12 cDNA containing hygromycin resistant gene was transfected in HEK 293 cells. A stable cell line was obtained by a cloning selection method. The cells were cultured in DMEM supplemented with 10% FBS and 1× of p/s.
On the day of the assay, the cells were harvested and resuspended in 0.25% BSA-DMEM and adjusted to a cell concentration of 1.6×10^6/ml. 15 μl of each compound was mixed with 120 μl of cell suspension in 96 well assay plates and incubated for 5 min prior to the addition of the radio-labeled ligand 2-MeS[^3H]-ADP (3 nM final in 0.25% BSA-DMEM) or unlabeled […] (for non-specific binding). The reaction was then incubated for 30 min at 37° C. and stopped by adding cold DMEM. The labeled and unlabeled cells were separated by a filtration method using a Packard Filtermate 196 on to the unfilter-96 GF/B plate. The plates were dyed in a 37° C. oven for 1-2 hours and 50 μl of MicroScint-20 (PerkinElmer) was added to each well. The radioactivity was measured using a TOPCOUNT beta counter (Packard). The percent inhibition for each compound was calculated by the change in radioactivity as a % inhibition of the control to obtain an IC50, as shown in Table 2.

T2 sequence (Q9H244 whole entry): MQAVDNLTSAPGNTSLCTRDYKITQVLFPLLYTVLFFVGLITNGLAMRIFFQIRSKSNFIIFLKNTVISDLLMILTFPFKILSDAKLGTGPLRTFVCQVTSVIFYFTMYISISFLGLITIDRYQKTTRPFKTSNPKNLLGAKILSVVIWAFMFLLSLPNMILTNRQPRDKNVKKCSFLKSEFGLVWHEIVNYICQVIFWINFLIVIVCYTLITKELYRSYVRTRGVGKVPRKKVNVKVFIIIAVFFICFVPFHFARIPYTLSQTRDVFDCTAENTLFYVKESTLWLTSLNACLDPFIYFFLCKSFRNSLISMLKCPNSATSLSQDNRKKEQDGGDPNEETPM
T1 sequence (Q9H244 whole entry): as above

Structure (SMILES) | IC50 (platelets) | IC50 (ADP P2Y12 receptor) | IC50 (P2Y12 receptor)
CCCSc1nc(N[C@@H]2C[C@H]2c2ccccc2)c2nnn([C@@H]3C[C@H](c4nnn[nH]4)[C@@H](O)[C@H]3O)c2n1 (mixture of isomers) [Cpd 1, (1R,2S,3R,5R)-3-{7-[(1RS,2SR)-2-phenyl-cyclopropylamino]-5-propylsulfanyl-[1,2,3]triazolo[4,5-d]pyrimidin-3-yl}-5-(1H-tetrazol-5-yl)-cyclopentane-1,2-diol] | 0.037 µM | 0.037 µM | 0.0043 µM
CCCSc1nc(N[C@@H]2C[C@H]2c2ccccc2)c2nnn([C@@H]3C[C@H](Cn4ncnn4)[C@@H](O)[C@H]3O)c2n1 (mixture of isomers) [Cpd 3, (1R,2S,3R,5R)-3-{7-[(1RS,2SR)-2-phenyl-cyclopropylamino]-5-propylsulfanyl-[1,2,3]triazolo[4,5-d]pyrimidin-3-yl}-5-tetrazol-2-ylmethyl-cyclopentane-1,2-diol] | 1.24 µM | 0.595 µM | 0.148 µM
CCCSc1nc(N[C@@H]2C[C@H]2c2ccccc2)c2nnn([C@@H]3C[C@H](Cn4cnnn4)[C@@H](O)[C@H]3O)c2n1 (mixture of isomers) [Cpd 4, (1R,2S,3R,5R)-3-{7-[(1RS,2SR)-2-phenyl-cyclopropylamino]-5-propylsulfanyl-[1,2,3]triazolo[4,5-d]pyrimidin-3-yl}-5-tetrazol-1-ylmethyl-cyclopentane-1,2-diol] | 1.15 µM | 0.799 µM | 0.371 µM
CCCSc1nc(N[C@@H]2C[C@H]2c2ccccc2)c2nnn([C@@H]3C[C@H](Cn4ccnc4)[C@@H](O)[C@H]3O)c2n1 (mixture of isomers) [Cpd 5, (1S,2R,3R,5R)-3-imidazol-1-ylmethyl-5-{7-[(1RS,2SR)-2-phenyl-cyclopropylamino]-5-propylsulfanyl-[1,2,3]triazolo[4,5-d]pyrimidin-3-yl}-cyclopentane-1,2-diol] | 0.529 µM | 0.805 µM | 0.26 µM
CCCSc1nc(N[C@@H]2C[C@H]2c2ccccc2)c2nnn([C@@H]3C[C@H](Cn4nccn4)[C@@H](O)[C@H]3O)c2n1 (mixture of isomers) [Cpd 6, (1R,2S,3R,5R)-3-{7-[(1RS,2SR)-2-phenyl-cyclopropylamino]-5-propylsulfanyl-[1,2,3]triazolo[4,5-d]pyrimidin-3-yl}-5-[1,2,3]triazol-2-ylmethyl-cyclopentane-1,2-diol] | 0.954 µM | 0.98 µM | 0.437 µM
CCCSc1nc(N[C@@H]2C[C@H]2c2ccccc2)c2nnn([C@@H]3C[C@H](Cn4ccnn4)[C@@H](O)[C@H]3O)c2n1 (mixture of isomers) [Cpd 7, (1R,2S,3R,5R)-3-{7-[(1RS,2SR)-2-phenyl-cyclopropylamino]-5-propylsulfanyl-[1,2,3]triazolo[4,5-d]pyrimidin-3-yl}-5-[1,2,3]triazol-1-ylmethyl-cyclopentane-1,2-diol] | 0.333 µM | 0.507 µM | 0.134 µM
CCCSc1nc(N[C@@H]2C[C@H]2c2ccccc2)c2nnn([C@@H]3C[C@H](c4nnc(C)[nH]4)[C@@H](O)[C@H]3O)c2n1 (mixture of isomers) [Cpd 14, (1S,2R,3R,5R)-3-(5-methyl-4H-[1,2,4]triazol-3-yl)-5-{7-[(1RS,2SR)-2-phenyl-cyclopropylamino]-5-propylsulfanyl-[1,2,3]triazolo[4,5-d]pyrimidin-3-yl}-cyclopentane-1,2-diol] | 0.064 µM | 0.265 µM | 0.735 µM
CCCSc1nc(N[C@@H]2C[C@H]2c2ccccc2)c2nnn([C@@H]3C[C@H](c4nnc[nH]4)[C@@H](O)[C@H]3O)c2n1 (mixture of isomers) [Cpd 21, (1R,2S,3R,5R)-3-{7-[(1RS,2SR)-2-phenyl-cyclopropylamino]-5-propylsulfanyl-[1,2,3]triazolo[4,5-d]pyrimidin-3-yl}-5-(4H-[1,2,4]triazol-3-yl)-cyclopentane-1,2-diol] | 0.046 µM | 0.155 µM | 0.0659 µM
CCCCNc1nc(SCCC)nc2c1nnn2[C@@H]1C[C@H](c2nnn[nH]2)[C@@H](O)[C@H]1O [Cpd 2, (1R,2S,3R,5R)-3-(7-butylamino-5-propylsulfanyl-[1,2,3]triazolo[4,5-d]pyrimidin-3-yl)-5-(1H-tetrazol-5-yl)-cyclopentane-1,2-diol] | 0.315 µM | 0.045 µM | 0.0137 µM
CCCSc1nc(NCC(F)(F)F)c2nnn([C@@H]3C[C@H](c4nnn[nH]4)[C@@H](O)[C@H]3O)c2n1 [Cpd 8, (1R,2S,3R,5R)-3-[5-propylsulfanyl-7-(2,2,2-trifluoro-ethylamino)-[1,2,3]triazolo[4,5-d]pyrimidin-3-yl]-5-(1H-tetrazol-5-yl)-cyclopentane-1,2-diol] | 1.21 µM | 3.12 µM | 0.665 µM
CCCSc1nc(NC[C@@H]2CCCO2)c2nnn([C@@H]3C[C@H](c4nnn[nH]4)[C@@H](O)[C@H]3O)c2n1 [Cpd 9, (1R,2S,3R,5R)-3-(5-propylsulfanyl-7-{[(2S)-tetrahydro-furan-2-ylmethyl]-amino}-[1,2,3]triazolo[4,5-d]pyrimidin-3-yl)-5-(1H-tetrazol-5-yl)-cyclopentane-1,2-diol] | 4.37 µM | 2.02 µM | 0.237 µM
CCCSc1nc(NCC2CC2)c2nnn([C@@H]3C[C@H](c4nnn[nH]4)[C@@H](O)[C@H]3O)c2n1 [Cpd 10, (1R,2S,3R,5R)-3-[7-(cyclopropylmethyl-amino)-5-propylsulfanyl-[1,2,3]triazolo[4,5-d]pyrimidin-3-yl]-5-(1H-tetrazol-5-yl)-cyclopentane-1,2-diol] | 1.54 µM | 0.542 µM | 0.139 µM

From patent US7566722B2, “Triazolopyrimidine derivatives as ADP P2Y12 receptor antagonists” (Janssen Pharmaceutica, N.V., priority 2006, dated 2009)
